Our source for the Ki values is US20080188503A1, “New Compounds II” (AstraZenaca AB, priority 2006, published 2008).

In the experiment the target is T1, recombinant human GSK3β (Homo sapiens, UniProt P49841).
T1 construct: purchased Dundee University, UK
As to the kind of experiment: GSK3β Scintillation Proximity Assay (ATP competition). It is filed as biochemical. The note with it: recombinant human GSK3β SPA; 1 μM ATP, 1 μM biotinylated peptide substrate; Ki calculated with Km of ATP 20 μM. As for the experimental part:
Determination of ATP Competition in Scintillation Proximity GSK3β Assay.
GSK3β Scintillation Proximity Assay.
The competition experiments were carried out in duplicate with 10 different concentrations of the inhibitors in clear-bottom microtiter plates (Wallac, Finland). A biotinylated peptide substrate, Biotin-Ala-Ala-Glu-Glu-Leu-Asp-Ser-Arg-Ala-Gly-Ser(PO3H2)-Pro-Gln-Leu (AstraZeneca, Lund), was added at a final concentration of 1 μM in an assay buffer containing 1 mU recombinant human GSK3β (Dundee University, UK), 12 mM morpholinepropanesulfonic acid (MOPS), pH 7.0, 0.3 mM EDTA, 0.01% β-mercaptoethanol, 0.004% Brij 35 (a […] detergent), 0.5% glycerol and 0.5 μg BSA/25 μl. The reaction was initiated by the addition of 0.04 μCi [γ-^33P]ATP (Amersham, UK) and unlabelled ATP at a final concentration of 1 μM and assay volume of 25 μl. After incubation for 20 minutes at room temperature, each reaction was terminated by the addition of 25 μl stop solution containing 5 mM EDTA, 50 μM ATP, 0.1% Triton X-100 and 0.25 mg streptavidin coated Scintillation Proximity Assay (SPA) beads (Amersham, UK). After 6 hours the radioactivity was determined in a liquid scintillation counter (1450 MicroBeta Trilux, Wallac). The inhibition curves were analysed by non-linear regression using GraphPad Prism, USA. The Km value of ATP for GSK3β, used to calculate the inhibition constants (Ki) of the various compounds, was 20 μM.

T1 sequence (P49841 whole entry): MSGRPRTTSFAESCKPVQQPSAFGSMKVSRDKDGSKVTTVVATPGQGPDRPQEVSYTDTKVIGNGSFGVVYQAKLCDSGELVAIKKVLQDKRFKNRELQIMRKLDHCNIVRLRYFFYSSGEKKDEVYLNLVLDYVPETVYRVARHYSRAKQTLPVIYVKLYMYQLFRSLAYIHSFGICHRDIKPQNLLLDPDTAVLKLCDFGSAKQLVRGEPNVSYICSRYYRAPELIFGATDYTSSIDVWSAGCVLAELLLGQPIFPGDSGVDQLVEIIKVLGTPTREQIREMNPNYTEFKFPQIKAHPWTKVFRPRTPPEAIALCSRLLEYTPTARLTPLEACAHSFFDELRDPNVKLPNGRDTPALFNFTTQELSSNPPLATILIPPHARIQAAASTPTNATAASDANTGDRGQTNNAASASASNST

As a reminder, the Ki is a measure of affinity in units of concentration, obtained from inhibition or displacement. As for `Cc1ncc(-c2nc(NC3CCN(C(=O)OC(C)(C)C)CC3)ncc2F)n1C1CCOCC1` [Example 33, tert-Butyl 4-({5-fluoro-4-[2-methyl-1-(tetrahydro-2H-pyran-4-yl)-1H-imidazol-5-yl]pyrimidin-2-yl}amino)piperidine-1-carboxylate], the Ki is 0.21 µM.

As for `Cc1ncc(-c2nc(NC3CCOCC3)ncc2F)n1C1CCOCC1` [Example 34, 5-Fluoro-4-[2-methyl-1-(tetrahydro-2H-pyran-4-yl)-1H-imidazol-5-yl]-N-(tetrahydro-2H-pyran-4-yl)pyrimidin-2-amine], the Ki is 0.087 µM.

For `CC(=O)N1CCC(Nc2ncc(F)c(-c3cnc(C)n3C3CCOCC3)n2)CC1` [Example 35, N-(1-Acetylpiperidin-4-yl)-5-fluoro-4-[2-methyl-1-(tetrahydro-2H-pyran-4-yl)-1H-imidazol-5-yl]pyrimidin-2-amine], the Ki is 0.12 µM. `Cc1ncc(-c2nc(NC3CCCCC3)ncc2F)n1C1CCOCC1` [Example 36, N-Cyclohexyl-5-fluoro-4-[2-methyl-1-(tetrahydro-2H-pyran-4-yl)-1H-imidazol-5-yl]pyrimidin-2-amine]: the Ki is 0.016 µM. Next, `Cc1ncc(-c2nc(NC3CCN(Cc4ccccc4)CC3)ncc2F)n1C1CCOCC1` [Example 37, N-(1-Benzylpiperidin-4-yl)-5-fluoro-4-[2-methyl-1-(tetrahydro-2H-pyran-4-yl)-1H-imidazol-5-yl]pyrimidin-2-amine]: 0.14 µM.

As for `Cc1ncc(-c2nc(NC3CCN(C(=O)c4ccccc4)CC3)ncc2F)n1C1CCOCC1` [Example 38, N-(1-Benzoylpiperidin-4-yl)-5-fluoro-4-[2-methyl-1-(tetrahydro-2H-pyran-4-yl)-1H-imidazol-5-yl]pyrimidin-2-amine], the Ki was 0.057 µM. Next, `Cc1ncc(-c2nc(NC3CCN(C(=O)Cc4ccccc4)CC3)ncc2F)n1C1CCOCC1` [Example 39, 5-Fluoro-4-[2-methyl-1-(tetrahydro-2H-pyran-4-yl)-1H-imidazol-5-yl]-N-[1-(phenylacetyl)piperidin-4-yl]pyrimidin-2-amine]: 0.036 µM; `Cc1ncc(-c2nc(NC3CCN(C(=O)OCc4ccccc4)CC3)ncc2F)n1C1CCOCC1` [Example 40, Benzyl 4-({5-fluoro-4-[2-methyl-1-(tetrahydro-2H-pyran-4-yl)-1H-imidazol-5-yl]pyrimidin-2-yl}amino)piperidine-1-carboxylate]: 0.031 µM; `Cc1ncc(-c2nc(NC3CCN(S(C)(=O)=O)CC3)ncc2F)n1C1CCOCC1` [Example 41, 5-Fluoro-N-[1-(methylsulfonyl)piperidin-4-yl]-4-[2-methyl-1-(tetrahydro-2H-pyran-4-yl)-1H-imidazol-5-yl]pyrimidin-2-amine]: 0.12 µM. Next, `Cc1ncc(-c2nc(NC3CCN(C(=O)C(F)(F)F)CC3)ncc2F)n1C1CCOCC1` [Example 42, 5-Fluoro-4-[2-methyl-1-(tetrahydro-2H-pyran-4-yl)-1H-imidazol-5-yl]-N-[1-(trifluoroacetyl)piperidin-4-yl]pyrimidin-2-amine]: 0.091 µM.

Regarding `Cc1ncc(-c2nc(NC3CCN(S(=O)(=O)c4ccccc4)CC3)ncc2F)n1C1CCOCC1` [Example 43, 5-Fluoro-4-[2-methyl-1-(tetrahydro-2H-pyran-4-yl)-1H-imidazol-5-yl]-N-[1-(phenylsulfonyl)piperidin-4-yl]pyrimidin-2-amine], the Ki is 0.053 µM.

Turning to `Cc1ncc(-c2nc(NC3CCN(S(=O)(=O)Cc4ccccc4)CC3)ncc2F)n1C1CCOCC1` [Example 44, N-[1-(Benzylsulfonyl)piperidin-4-yl]-5-fluoro-4-[2-methyl-1-(tetrahydro-2H-pyran-4-yl)-1H-imidazol-5-yl]pyrimidin-2-amine], the Ki was 0.08 µM.
